Where “and” joins values, the source holds several entries; their conditions need not be identical. Equal values may be shown once. Where a name gives a salt, the structure may show the parent alone.

Drawing on EP4624465A1, “COMPOUND SERVING AS DDR1 KINASE INHIBITOR, AND MEDICINE” (Nippon Shinyaku Co., Ltd., priority 2022, dated 2024), this text covers IC50 for 26 molecules.

The target in assay [1] is T1, DDR1 kinase (Homo sapiens, UniProt Q08345). Put plainly: Evaluation of DDR1 kinase inhibition in DDR1-expressing U2OS cells (type I collagen stimulation, PathHunter detection). It is filed as cell-based. On the set-up: host or cells: U2OS. The settings on record: type I collagen 50 µg/mL stimulation, duplicate, read-out: DDR-1 IC50.
Target sequence in this assay (Q08345 19-913): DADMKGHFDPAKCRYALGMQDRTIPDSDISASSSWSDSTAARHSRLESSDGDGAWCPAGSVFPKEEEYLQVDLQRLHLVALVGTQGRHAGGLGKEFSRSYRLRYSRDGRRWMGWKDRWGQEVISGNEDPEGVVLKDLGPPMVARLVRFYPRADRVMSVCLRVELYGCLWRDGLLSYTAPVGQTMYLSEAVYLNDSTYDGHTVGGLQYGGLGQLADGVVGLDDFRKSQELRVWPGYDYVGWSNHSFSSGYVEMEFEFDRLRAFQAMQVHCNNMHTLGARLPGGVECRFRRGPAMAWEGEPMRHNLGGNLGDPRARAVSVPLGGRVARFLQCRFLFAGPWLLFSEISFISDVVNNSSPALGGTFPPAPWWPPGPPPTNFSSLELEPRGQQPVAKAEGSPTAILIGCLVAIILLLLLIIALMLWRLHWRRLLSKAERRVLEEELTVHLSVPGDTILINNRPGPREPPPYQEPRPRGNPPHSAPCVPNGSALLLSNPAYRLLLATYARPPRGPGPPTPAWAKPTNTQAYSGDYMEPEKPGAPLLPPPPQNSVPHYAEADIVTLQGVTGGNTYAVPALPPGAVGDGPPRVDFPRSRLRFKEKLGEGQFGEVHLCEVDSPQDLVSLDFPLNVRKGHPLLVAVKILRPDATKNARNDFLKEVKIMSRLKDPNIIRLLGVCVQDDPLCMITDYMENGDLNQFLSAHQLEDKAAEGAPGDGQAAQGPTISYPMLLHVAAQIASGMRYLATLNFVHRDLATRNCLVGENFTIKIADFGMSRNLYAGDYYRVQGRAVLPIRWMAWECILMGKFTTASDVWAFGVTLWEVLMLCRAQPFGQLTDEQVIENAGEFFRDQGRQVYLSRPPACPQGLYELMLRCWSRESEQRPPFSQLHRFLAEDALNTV
Assay [2] addresses T1, DDR1 kinase. In words: Evaluation of DDR1 kinase inhibition (LANCE Ultra TR-FRET kinase assay). It is filed as biochemical. Details: purchased Carna Biosciences 08-113. The settings on record: DDR1 protein 0.5 nM, LANCE Ultra ULight-poly GAT substrate, 2 hours at room temperature, duplicate; read-out: DDR-1 IC50. In general terms: TR-FRET usually uses a lanthanide donor and a delayed reading to cut background.
Target sequence in this assay (Q08345 19-876 isoform Q08345-2 limits assumed): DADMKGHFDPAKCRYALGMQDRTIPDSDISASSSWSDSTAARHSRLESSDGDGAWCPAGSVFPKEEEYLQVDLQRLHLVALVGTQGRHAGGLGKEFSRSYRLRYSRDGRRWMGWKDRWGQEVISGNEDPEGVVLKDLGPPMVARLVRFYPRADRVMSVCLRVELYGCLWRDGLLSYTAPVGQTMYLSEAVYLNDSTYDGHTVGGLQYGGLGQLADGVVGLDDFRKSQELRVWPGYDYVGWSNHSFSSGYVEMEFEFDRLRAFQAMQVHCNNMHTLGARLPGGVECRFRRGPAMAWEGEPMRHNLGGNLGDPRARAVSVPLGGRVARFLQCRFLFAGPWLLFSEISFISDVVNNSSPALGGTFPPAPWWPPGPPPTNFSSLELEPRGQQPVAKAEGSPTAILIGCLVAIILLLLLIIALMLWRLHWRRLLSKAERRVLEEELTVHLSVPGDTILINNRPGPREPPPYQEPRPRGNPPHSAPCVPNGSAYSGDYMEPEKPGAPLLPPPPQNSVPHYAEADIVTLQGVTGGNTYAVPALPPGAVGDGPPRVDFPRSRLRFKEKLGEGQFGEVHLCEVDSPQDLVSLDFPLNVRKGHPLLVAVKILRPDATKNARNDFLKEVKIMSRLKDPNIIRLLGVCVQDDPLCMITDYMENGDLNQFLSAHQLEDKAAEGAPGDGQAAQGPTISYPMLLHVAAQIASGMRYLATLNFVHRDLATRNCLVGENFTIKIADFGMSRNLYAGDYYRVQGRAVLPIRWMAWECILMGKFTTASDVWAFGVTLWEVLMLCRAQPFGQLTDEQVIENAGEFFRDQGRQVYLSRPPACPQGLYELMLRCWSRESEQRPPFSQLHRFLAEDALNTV

Broadly, the IC50 is the concentration at which inhibition is half-maximal. On to `Nc1cc(C(=O)N2CC(c3nn(Cc4noc(-c5ccc(F)cc5)n4)c4cccc(F)c34)C2)ccn1` [Compound E-116, 4-[3-(4-fluoro-1-{[5-(4-fluorophenyl)-1,2,4-oxadiazol-3-yl]methyl}-1H-indazol-3-yl)azetidine-1-carbonyl]pyridin-2-amine], for which the values for the IC50 in assay [1] and in assay [2] were 800 nM and 4.4 nM, respectively.

`Nc1cc(C(=O)N2CC(c3nn(CC(=O)N4CCC[C@H]4C(F)(F)F)c4ccncc34)C2)ccn1` [Compound E-13, 2-{3-[1-(2-aminopyridine-4-carbonyl)azetidin-3-yl]-1H-pyrazolo[4,3-c]pyridin-1-yl]-1-[(2S)-2-(trifluoromethyl)pyrrolidin-1-yl]ethan-1-one hydrochloride]: the half-inhibitory concentration (IC50) in assay [1] is 1200 nM; in assay [2], 47 nM.

Turning to `O=C(c1ccnc(NC2CCOCC2)c1)N1CC(c2nn(CC(=O)N3CCC[C@H]3C(F)(F)F)c3cc(F)cc(F)c23)C1` [Compound E-88, 2-[4,6-difluoro-3-(1-{2-[(oxan-4-yl)amino]pyridine-4-carbonyl}azetidin-3-yl)-1H-indazol-1-yl]-1-[(2S)-2-(trifluoromethyl)pyrrolidin-1-yl]ethan-1-one], the IC50 in assay [1] was 1400 nM; in assay [2], 21 nM.

`N#C[C@@H]1CCCN1C(=O)Cn1nc(C2CN(C(=O)c3cc(N)ncc3F)C2)c2ccccc21` [Compound E-236]: the IC50 in assay [1] is 120 nM; in assay [2], 4.8 nM.

For `O=C(c1cnc(NC2CC2)s1)N1CC(c2nn(CC(=O)N3CCC[C@H]3C(F)(F)F)c3cc(F)cc(F)c23)C1` [Compound E-98, 2-(3-{1-[2-(cyclopropylamino)-1,3-thiazole-5-carbonyl]azetidin-3-yl]-4,6-difluoro-1H-indazol-1-yl)-1-[(2S)-2-(trifluoromethyl)pyrrolidin-1-yl]ethan-1-one], the concentration for half-maximal inhibition (IC50) worked out at 3700 nM in assay [1] and 86 nM in assay [2].

Take `Nc1cc(C(=O)N2CC(c3nn(Cc4nc(C(F)(F)F)no4)c4ccccc34)C2)c(F)cn1` [Compound E-18, 5-fluoro-4-[3-(1-{[3-(trifluoromethyl)-1,2,4-oxadiazol-5-yl]methyl}-1H-indazol-3-yl)azetidine-1-carbonyl]pyridin-2-amine]: the half-inhibitory concentration (IC50) in assay [1] came to 26 nM; in assay [2], 6.9 nM.

Turning to `O=C(Cn1nc(C2CN(C(=O)c3ccnc(NC4CC4)c3)C2)c2c(F)cc(F)cc21)NCC(F)(F)F` [Compound E-30, 2-(3-{1-[2-(cyclopropylamino)pyridine-4-carbonyl]azetidin-3-yl}-4,6-difluoro-1H-indazol-1-yl)-N-(2,2,2-trifluoroethyl)acetamide hydrochloride], the IC50 stood at 74 nM in assay [1] and 4.1 nM in assay [2].

Take `Cc1ccc2c(n1)c(C1CN(C(=O)c3ccnc(N)c3)C1)nn2CC(=O)N1CCC[C@H]1C(F)(F)F` [Compound E-12, 2-{3-[1-(2-aminopyridine-4-carbonyl)azetidin-3-yl]-5-methyl-1H-pyrazolo[4,3-b]pyridin-1-yl}-1-[(2S)-2-(trifluoromethyl)pyrrolidin-1-yl]ethan-1-one]: the IC50 in assay [1] came to 330 nM; in assay [2] it was 7.5 nM.

As for `Cc1ccnc2c1c(C1CN(C(=O)c3ccnc(N)c3)C1)nn2CC(=O)N1CCC[C@H]1C(F)(F)F` [Compound E-15, 2-{3-[1-(2-aminopyridine-4-carbonyl)azetidin-3-yl]-4-methyl-1H-pyrazolo[3,4-b]pyridin-1-yl}-1-[(2S)-2-(trifluoromethyl)pyrrolidin-1-yl]ethan-1-one], the IC50 turned out to be 2600 nM in assay [1] and 210 nM in assay [2].

For `Nc1cc(C(=O)N2CC(c3nn(Cc4ccc(C(F)(F)F)cc4)c4cccc(F)c34)C2)ccn1` [Compound E-112, 4-[3-(4-fluoro-1-{[4-(trifluoromethyl)phenyllmethyl}-1H-indazol-3-yl)azetidine-1-carbonyl]pyridin-2-amine hydrochloride], the IC50 in assay [1] is 170 nM; in assay [2], 3.7 nM.

In the case of `CCN(CC)C(=O)Cn1nc(C2CN(C(=O)c3cc(N)ncc3F)C2)c2ccccc21` [Compound E-263, 2-{3-[1-(2-amino-5-fluoropyridine-4-carbonyl)azetidin-3-yl]-1H-indazol-1-yl}-N,N-diethylacetamide], the IC50 came out at 65 nM in assay [1] and 15 nM in assay [2].

In the case of `Nc1cc(C(=O)N2CC(c3nn(CC(=O)N4CCO[C@@H](C(F)(F)F)C4)c4cc(F)cc(F)c34)C2)ccn1` [Compound E-73, 2-(3-[1-(2-aminopyridine-4-carbonyl)azetidin-3-yl]-4,6-difluoro-1H-indazol-1-yl}-1-l(2R)-2-(trifluoromethyl)morpholin-4-yl]ethan-1-one hydrochloride], the concentration for half-maximal inhibition (IC50) in assay [1] amounted to 13 nM; in assay [2] it was 5.6 nM.

As to `O=C(Cn1nc(C2CN(C(=O)c3cc(NC4CC4)ncn3)C2)c2c(F)cc(F)cc21)NCC(F)(F)F` [Compound E-31, 2-(3-{1-[6-(cyclopropylamino)pyrimidine-4-carbonyl]azetidin-3-yl}-4,6-difluoro-1H-indazol-1-yl)-N-(2,2,2-trifluoroethyl)acetamide], the results for the IC50 in assay [1] and in assay [2] were 690 nM and 21 nM, respectively.

For the molecule `Nc1cc(C(=O)N2CC(c3nn(CC(=O)NCC(F)(F)F)c4ccccc34)C2)ccn1` [Compound E-211, 2-{3-[1-(2-aminopyridine-4-carbonyl)azetidin-3-yl]-1H-indazol-1-yl}-N-(2,2,2-trifluoroethyl)acetamide], the values for the IC50 in assay [1] and in assay [2] were 290 nM and 27 nM, respectively.

Take `Nc1cc(C(=O)N2CC=C(c3cn(CC(=O)N4CCC[C@H]4C(F)(F)F)c4cccc(F)c34)CC2)ccn1` [Compound E-124]: the IC50 in assay [1] was 140 nM; in assay [2] it was 2.2 nM.

Consider `Nc1cc(C(=O)N2CC(c3nn(CC(=O)N4CCC[C@H]4C(F)(F)F)c4cccc(F)c34)C2)ccn1` [Compound E-96, 2-{3-[1-(2-aminopyridine-4-carbonyl)azetidin-3-yl]-4-fluoro-1H-indazol-1-yl}-1-[(2S)-2-(trifluoromethyl)pyrrolidin-1-yl]ethan-1-one], for which the IC50 in assay [1] was determined as 84 nM; in assay [2], 0.9 nM.

On to `Nc1cc(C(=O)N2CC(c3nn(CC(=O)NC4CCCC4(F)F)c4ccccc34)C2)ccn1` (stereo not shown) [Compound E-225, 2-{3-[1-(2-aminopyridine-4-carbonyl)azetidin-3-yl}-1H-indazol-1-yl}-N-(2,2-difluorocyclopentyl)acetamide], for which the IC50 in assay [1] was 450 nM; in assay [2] it was 17 nM.

Take `O=C(c1ccnc(NC2CC2)c1)N1CC(c2nn(CC(=O)N3CCC[C@H]3C(F)(F)F)c3cc(F)cc(F)c23)C1` [Compound E-72, 2-(3-{1-[2-(cyclopropylamino)pyridine-4-carbonyl]azetidin-3-yl)-4,6-difluoro-1H-indazol-1-yl)-1-[(2S)-2-(trifluoromethyl)pyrrolidin-1 - yllethan-1-one hydrochloride]: the values for the IC50 in assay [1] and in assay [2] were 200 nM and 8.5 nM, respectively.

As for `Nc1cc(C(=O)N2CC(c3nn(CC(=O)N4CCC[C@H]4C(F)(F)F)c4ccc(Cl)cc34)C2)c(F)cn1` [Compound E-206, 2-{3-[1-(2-amino-5-fluoropyridine-4-carbonyl)azetidin-3-yl}-5-chloro-1H-indazol-1-yl}-1-[(2S)-2-(trifluoromethyl)pyrrolidin-1-yl]ethan-1-one], the values for the IC50 in assay [1] and in assay [2] were 6 nM and 1.6 nM, respectively.

Take `Nc1cc(C(=O)N2CC(c3nn(CC(=O)N(CC(F)(F)F)C4CC4)c4ccccc34)C2)c(F)cn1` [Compound E-251, 2-{3-[1-(2-amino-5-fluoropyridine-4-carbonyl)azetidin-3-yl]-1H-indazol-1-yl}-N-cyclopropyl-N-(2,2,2-trifluoroethyl)acetamide]: the results for the IC50 in assay [1] and in assay [2] were 19 nM and 2.5 nM, respectively.

As for `CC(C)[C@@H]1COCCN1C(=O)Cn1nc(C2CN(C(=O)c3ccnc(N)c3)C2)c2c(F)cc(F)cc21` [Compound E-83, 2-{3-[1-(2-aminopyridine-4-carbonyl)azetidin-3-yl]-4,6-difluoro-1H-indazol-1-yl]-1-[(3R)-3-(propan-2-yl)morpholin-4-yl]ethan-1-one], the figures for the half-inhibitory concentration (IC50) in assay [1] and in assay [2] were 74 nM and 0.3 nM, respectively.

For the molecule `O=C(Cn1nc(C2CN(C(=O)c3ccnc4[nH]ccc34)C2)c2c(Cl)cccc21)NCC(F)(F)F` [Compound E-61], the half-inhibitory concentration (IC50) was 960 nM and 1600 nM in assay [1]; 2.8 nM in assay [2].

As for `CN(CC(F)(F)F)C(=O)Cn1nc(C2CN(C(=O)c3nc(N)ncc3F)C2)c2ccccc21` [Compound E-276, 2-{3-[1-(2-amino-5-fluoropyrimidine-4-carbonyl)azetidin-3-yl)-1H-indazol-1-yl}-N-methyl-N-(2,2,2-trifluoroethyl)acetamide], the IC50 in assay [1] turned out to be 430 nM; in assay [2], 19 nM.

In the case of `Cn1nccc1NC(=O)Cn1nc(C2CN(C(=O)c3cc(N)ncc3F)C2)c2ccccc21` [Compound E-247, 2-{3-[1-(2-amino-5-fluoropyridine-4-carbonyl)azetidin-8-yl]-1H-indazol-1-yl}-N-(1-methyl-1H-pyrazol-5-yl)acetamide], the half-inhibitory concentration (IC50) stood at 300 nM in assay [1] and 47 nM in assay [2].

Consider `Nc1ncc(F)c(C(=O)N2CC(c3nn(CC(=O)N4CCC[C@H]4C(F)(F)F)c4ccccc34)C2)n1` [Compound E-22, 2-{3-[1-(2-amino-5-fluoropyrimidine-4-carbonyl)azetidin-3-yl]-1H-indazol-1-yl}-1-[(2S)-2-(trifluoromethyl)pyrrolidin-1-yl]ethan-1-one], for which the IC50 in assay [1] amounted to 18 nM; in assay [2], 5.6 nM.

Regarding `Nc1cc(C(=O)N2CC(c3nn(Cc4cn(CC5CCC5)nn4)c4cccc(F)c34)C2)ccn1` [Compound E-92, 4-[3-(1-{[1-(cyclobutylmethyl)-1H-1,2,3-triazol-4-yl]methyl}-4-fluoro-1H-indazol-3-yl)azetidine-1-carbonyl]pyridin-2-amine hydrochloride], the half-inhibitory concentration (IC50) came out at 1400 nM in assay [1] and 71 nM in assay [2].
